# In paper PMC4702177, “Discovering new mTOR inhibitors for cancer treatment through virtual screening methods and in vitro assays” (Scientific Reports, 2016):
# Where “and” joins values, the source holds several entries; their conditions need not be identical. Equal values may be shown once. Entries after “also recorded” stand apart in the source; their conditions may differ.
# Legend:
# [1] = test system: HeLa cells; assay: Quantification of apoptotic cells (Hoechst 33342 staining); type: cell-based, human; settings: 24 hours (control 1.9%)
# Procedure: To elucidate the mechanisms of cell death induced by 17, we analyzed the effect of 17 on nuclear morphology using Hoechst 33342 staining. […] This observation allowed for clear discrimination of treated cells from untreated non-apoptotic HeLa cells, which have a normal, round, and unpunctuated nucleus. […] The percentage of apoptotic HeLa cells were 6.5% and 7.7% at the concentrations of 2.74 and 5.48 μM, respectively (Fig. 6d). To further confirm the nuclear morphology observation, Western blotting was used to detect caspase-3 activation and PARP cleavage, two biochemical markers of apoptosis. […] The induction of apoptosis is positively correlated with the concentration of compound 17.
# […] Then, the cells were collected, washed with PBS, and fixed in 4% paraformaldehyde for 15 min at room temperature. Finally, the samples were stained with Hoechst33342 (10 μg/mL) for 5 min. Stained nuclei were photographed under a fluorescence microscope with a 20× objective (Nikon).
# [2] = target: T1, human recombinant mTOR kinase (Homo sapiens, UniProt P42345); assay: In vitro mTOR kinase assay (K-LISA ELISA, p70S6K-GST substrate); type: biochemical
# T1 construct: a purified recombinant mTOR fragment (amino acids 1360-2549, CBA104-1KIT from Calbiochem); purchased Calbiochem CBA104-1KIT
# T1 sequence (P42345 1360-2549): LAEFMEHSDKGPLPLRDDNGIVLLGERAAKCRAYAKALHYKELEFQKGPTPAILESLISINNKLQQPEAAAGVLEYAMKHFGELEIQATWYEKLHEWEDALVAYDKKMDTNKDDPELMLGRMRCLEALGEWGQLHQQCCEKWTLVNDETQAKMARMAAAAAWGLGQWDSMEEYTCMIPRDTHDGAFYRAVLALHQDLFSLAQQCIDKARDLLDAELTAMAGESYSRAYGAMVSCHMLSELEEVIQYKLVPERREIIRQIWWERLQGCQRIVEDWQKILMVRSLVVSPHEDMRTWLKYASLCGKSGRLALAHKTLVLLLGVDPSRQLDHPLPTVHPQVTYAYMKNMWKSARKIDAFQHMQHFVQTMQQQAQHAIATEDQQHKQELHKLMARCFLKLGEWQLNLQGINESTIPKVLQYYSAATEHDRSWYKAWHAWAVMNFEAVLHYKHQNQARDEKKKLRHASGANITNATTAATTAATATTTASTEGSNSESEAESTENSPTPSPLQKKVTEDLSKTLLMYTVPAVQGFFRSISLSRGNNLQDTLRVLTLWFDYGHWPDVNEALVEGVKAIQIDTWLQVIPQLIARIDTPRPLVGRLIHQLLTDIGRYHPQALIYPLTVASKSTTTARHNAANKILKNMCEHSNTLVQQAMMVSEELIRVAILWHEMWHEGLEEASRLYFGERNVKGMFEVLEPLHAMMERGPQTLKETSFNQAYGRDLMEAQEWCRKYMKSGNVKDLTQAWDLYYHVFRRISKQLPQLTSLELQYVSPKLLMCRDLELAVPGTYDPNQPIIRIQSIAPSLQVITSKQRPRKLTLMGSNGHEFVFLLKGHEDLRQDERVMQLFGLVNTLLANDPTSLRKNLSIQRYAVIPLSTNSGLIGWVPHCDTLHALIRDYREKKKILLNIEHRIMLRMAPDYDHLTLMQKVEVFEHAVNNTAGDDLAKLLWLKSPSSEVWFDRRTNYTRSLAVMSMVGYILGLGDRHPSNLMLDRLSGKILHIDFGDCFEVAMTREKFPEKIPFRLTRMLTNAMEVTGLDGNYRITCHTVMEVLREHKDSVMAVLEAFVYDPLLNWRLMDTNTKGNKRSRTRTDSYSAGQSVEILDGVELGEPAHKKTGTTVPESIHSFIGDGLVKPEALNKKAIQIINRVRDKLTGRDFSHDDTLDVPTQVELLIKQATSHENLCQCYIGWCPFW
# Procedure: The mTOR kinase inhibitory activities of the 41 final virtual hits were determined using an ELISA-based activity assays that utilize a p70S6K-GST fusion protein as a specific mTOR substrate (see the Experimental Section for details). For the initial screening, all the activities were measured at a concentration of 10 μM.
# mTOR activity was evaluated using a purified recombinant mTOR fragment (amino acids 1360-2549, CBA104-1KIT from Calbiochem). The K-LISA^TM mTOR activity kit is an ELISA-based activity assay for detection of phosphorylation of a p70S6K-GST fusion protein (a specific mTOR substrate) in the presence of ATP. The assay was optimized for use with mTOR as described in the Calbiochem protocol. The assay takes place in 96-well plates and can be divided into two phases: an mTOR kinase reaction phase and phosphorylated substrate detection phase.
# In the kinase reaction phase, the following components were mixed in the same well: 5 μL of a solution containing 5 μg/mL mTOR substrate (recombinant p70S6K-GST fusion protein) in Tris-buffered saline (1 L TBS: sodium chloride 8.8 g, Tris Base 2.4 g, HCl 13 mL, Tween-20 10 ml, ddH2O), 5 μL ATP solution containing 20 mM ATP diluted in kinase assay buffer (pH 7.4, 0.01% Tween 20, 1 mM EDTA, 10 mM MgCl2, 1 mM DTT), […] of human recombinant mTOR kinase at the optimal concentration (80 ng/well) diluted in kinase assay buffer, and 5 μL of serial dilutions of inhibitors diluted in DMSO and kinase assay buffer. For each inhibitor concentration, the assay was run in triplicate. The final reaction volume was 100 μL per well, and samples incubated for 30 min at room temperature.
# The kinase reaction was stopped by adding 10 μL kinase stop solution to each well. The phosphorylated substrate was detected using Anti-p70S6K-pT389 antibody, followed by detection with HRP-Antibody Conjugate and TMB Substrate. Then, ELISA stop solution was added to each well to stop the reaction, and relative mTOR inhibition activity was determined by reading the absorbance at dual wavelengths of 450/540 nm.
# [3] = test system: HeLa cells; assay: Cell cycle analysis by flow cytometry; type: cell-based, human; settings: 2.74 and 5.48 μM, 24 hours
# Procedure: To further explore the mechanism of cell growth inhibition by compound 17, we examined the effects of compound 17 on cell cycle distribution in HeLa cells using flow cytometry.
# Cells cycle distribution was analyzed as previously described. In brief, HeLa cells (1.5 × 10^4/well) seeded in six-well plates were incubated with compound 17 for 24 h. Then, the cells were collected, washed twice with phosphate-buffered saline (PBS), and fixed in 70% cold ethanol at −20 °C overnight. Finally, the samples were stained with 50 μg/mL propidium iodide and 30 μg/mL of RNase A at 37 °C for 1 h. DNA content data were acquired using CELLQuest software on a flow cytometer (FACSCalibur; Becton Dickinson, Mountain View, CA, USA).
# [4] = test system: mTORC1 (phosphorylation of p70S6K and 4E-BP1) in HeLa cells; assay: Western blot of mTORC1 activity; type: cell-based, human; settings: 2.47 and 5.48 μM
# Procedure: In vitro mTOR kinase assay confirmed that 17 did inhibit mTOR kinase activity (Table 1). The mTOR pathway is frequently activated in human cancers (e.g., HeLa and MCF-7). To assure compound 17 inhibits the mTOR pathway inside the cell, western blotting was employed to check the activity of mTORC1 (Complex 1) and mTORC2 (Complex 2). HeLa cell line was selected for western blot analysis after treatment with compound 17 at 2.47 and 5.48 μM; detailed results are shown in Fig. 8.
# mTORC1 activity was evaluated by determining the phosphorylation level of its targets, p70S6K and 4E-BP1, in the HeLa cell line. […] Quantitative of the phosphorylation levels of p70SK6 and 4E-BP1 are […] with the concentration of 17 (Fig. 8).
# (§1) HeLa cells were cultured in a six-well plate in the presence of compound 17 for 48 h. Samples were prepared by lysing PBS-washed cells with RIPA buffer (Beyotime, Haimen, China) consisting of 1% Nonidet P-40, 0.5% sodium deoxycholate, 0.1% SDS, and 50 mM Tris-HCl, pH 7.4, supplemented with NaF, NaVO4, EDTA and a protease inhibitor cocktail (Roche). Proteins were subjected to SDS-PAGE gel electrophoresis and transferred onto a polyvinylidene difluoride membrane (Hybond-P; GE Healthcare Life Sciences, Piscataway, NJ). […] The densitometry of each band was quantified by FluorChem 8000 (AlphaInnotech, San Leandro, CA).
# [5] = test system: PI3K pathway (Akt phosphorylation on Thr308) in HeLa cells; assay: Western blot of PI3K pathway; type: cell-based, human; settings: compared with the controls
# Procedure: To evaluate whether compound 17 inhibits the PI3K pathway, the Akt phosphorylation level on Thr308 was determined.
# as §1, with “NJ). Immunoblotting was performed using rabbit monoclonal antibodies (Cell Signaling Technology; Danvers, MA) against p70S6K1 phosphorylated on Thr 389 (#9234) and total p70S6K1 (#2708), 4E-BP1 phosphorylated on Thr 37 (#2855) and total 4E-BP1 (#9452), Akt phosphorylated on Thr 308 (#4056) or Ser 473 (#4060) and total Akt (#4685), cleaved caspase-3 (#9664), PARP (#9532), and β-actin (#3700).” for “NJ).”
# [6] = test system: mTORC2 (Akt phosphorylation on Ser473) in HeLa cells; assay: Western blot of mTORC2 activity; type: cell-based, human
# Procedure: Accordingly, we checked mTORC2 activity by measuring Akt phosphorylation levels on Ser473 in HeLa cells. […] In other words, the mechanism of HeLa cell death induced by 17 was apoptosis, and induction was achieved by targeting both mTORC1 and mTORC2 simultaneously.
# as §1, with “NJ). Immunoblotting was performed using rabbit monoclonal antibodies (Cell Signaling Technology; Danvers, MA) against p70S6K1 phosphorylated on Thr 389 (#9234) and total p70S6K1 (#2708), 4E-BP1 phosphorylated on Thr 37 (#2855) and total 4E-BP1 (#9452), Akt phosphorylated on Thr 308 (#4056) or Ser 473 (#4060) and total Akt (#4685), cleaved caspase-3 (#9664), PARP (#9532), and β-actin (#3700).” for “NJ).”
compound,measurement,setting,value
Nc1nn2c(nc(N)c3c(N)n[nH]c32)c1/N=N/c1ccccc1 [Compound 17],% of apoptotic cells,[1]; 2.74 μM,6.5%
same,% of apoptotic cells,[1]; 5.48 μM,7.7%
same,inhibition at 10 µM,"[2]; 10 μM, triplicate measurements",61%
same,IC50,[2]; mean ± SD of triplicate measurements,< 10 µM and 7.59 µM
same,cell cycle distribution,[3],arrests the cell cycle of HeLa at the G1/G0-phase; also recorded: induced an arrest of cell cycle at the G1/G0-phase
same,phosphorylation level of 4E-BP1,[4],suppressed
same,phosphorylation level of p70S6K,[4],suppressed
same,P-Akt Thr308,[5],not affected
same,P-Akt Ser473,[6],can reduce P-Akt Ser473
